Laboratory results: PubChem BioAssay AID1259407 (Chemical Carcinogenesis Research Information System (CCRIS), 2018)
Activity calls are given as the source filed them. The rule behind the calls is not given here.

System: CCRIS mutagenicity, Ames/micronucleus/aberration tests
Assay: CCRIS mutagenicity studies
[1] = Test System: AMES SALMONELLA TYPHIMURIUM, Strain/Indicator: TA100, Metabolic Activation: NONE, Method: PREINCUBATION

Nc1cccc2c1-c1cccc3cccc-2c13
mutagenic call (Test System: AMES SALMONELLA TYPHIMURIUM, Strain/Indicator: TA98, Metabolic Activation: RAT, LIVER, S-9, AROCLOR 1254 (2 OR 4%), Method: STANDARD PLATE): active; positive
mutagenic call (Test System: AMES SALMONELLA TYPHIMURIUM, Strain/Indicator: TA100, Metabolic Activation: RAT, LIVER, S-9, AROCLOR 1254 (2%), Method: STANDARD PLATE): active; positive
mutagenic call (Test System: AMES SALMONELLA TYPHIMURIUM, Strain/Indicator: TA1535, Metabolic Activation: RAT, LIVER, S-9, AROCLOR 1254 (2%), Method: STANDARD PLATE): inactive; negative
mutagenic call (Test System: AMES SALMONELLA TYPHIMURIUM, Strain/Indicator: TA1537, Metabolic Activation: RAT, LIVER, S-9, AROCLOR 1254 (2%), Method: STANDARD PLATE): active; positive

O=S(=O)(O)N(S(=O)(=O)O)S(=O)(=O)O
mutagenic call (Test System: AMES SALMONELLA TYPHIMURIUM, Strain/Indicator: G46, Metabolic Activation: RAT, LIVER, S-9, AROCLOR 1254, Method: STANDARD PLATE): inactive; negative
mutagenic call (Test System: AMES SALMONELLA TYPHIMURIUM, Strain/Indicator: TA100, Metabolic Activation: RAT, LIVER, S-9, AROCLOR 1254, Method: STANDARD PLATE): inactive; negative

CCCSC(=O)Cl
mutagenic call (Test System: AMES SALMONELLA TYPHIMURIUM, Strain/Indicator: TA97, Metabolic Activation: HAMSTER, LIVER, S-9, AROCLOR 1254 (30%), Method: PREINCUBATION): inactive; negative
mutagenic call (Test System: AMES SALMONELLA TYPHIMURIUM, Strain/Indicator: TA97, Metabolic Activation: NONE, Method: PREINCUBATION): inactive; negative
mutagenic call (Test System: AMES SALMONELLA TYPHIMURIUM, Strain/Indicator: TA97, Metabolic Activation: RAT, LIVER, S-9, AROCLOR 1254 (30%), Method: PREINCUBATION): inactive; negative
mutagenic call (Test System: AMES SALMONELLA TYPHIMURIUM, Strain/Indicator: TA98, Metabolic Activation: HAMSTER, LIVER, S-9, AROCLOR 1254 (30%), Method: PREINCUBATION): inactive; negative
mutagenic call (Test System: AMES SALMONELLA TYPHIMURIUM, Strain/Indicator: TA98, Metabolic Activation: NONE, Method: PREINCUBATION): inactive; negative
mutagenic call (Test System: AMES SALMONELLA TYPHIMURIUM, Strain/Indicator: TA98, Metabolic Activation: RAT, LIVER, S-9, AROCLOR 1254 (30%), Method: PREINCUBATION): inactive; negative
mutagenic call (Test System: AMES SALMONELLA TYPHIMURIUM, Strain/Indicator: TA100, Metabolic Activation: HAMSTER, LIVER, S-9, AROCLOR 1254 (30%), Method: PREINCUBATION): inactive; negative
mutagenic call [1]: inactive; negative
mutagenic call (Test System: AMES SALMONELLA TYPHIMURIUM, Strain/Indicator: TA100, Metabolic Activation: RAT, LIVER, S-9, AROCLOR 1254 (30%), Method: PREINCUBATION): inactive; negative
mutagenic call (Test System: AMES SALMONELLA TYPHIMURIUM, Strain/Indicator: TA1535, Metabolic Activation: HAMSTER, LIVER, S-9, AROCLOR 1254 (5%), Method: PREINCUBATION): inactive; negative
mutagenic call (Test System: AMES SALMONELLA TYPHIMURIUM, Strain/Indicator: TA1535, Metabolic Activation: HAMSTER, LIVER, S-9, AROCLOR 1254 (10%), Method: PREINCUBATION): active; positive
mutagenic call (Test System: AMES SALMONELLA TYPHIMURIUM, Strain/Indicator: TA1535, Metabolic Activation: HAMSTER, LIVER, S-9, AROCLOR 1254 (30%), Method: PREINCUBATION): active; positive
mutagenic call (Test System: AMES SALMONELLA TYPHIMURIUM, Strain/Indicator: TA1535, Metabolic Activation: NONE, Method: PREINCUBATION): inactive; negative
mutagenic call (Test System: AMES SALMONELLA TYPHIMURIUM, Strain/Indicator: TA1535, Metabolic Activation: RAT, LIVER, S-9, AROCLOR 1254 (30%), Method: PREINCUBATION): inactive; negative
mutagenic call (Test System: AMES SALMONELLA TYPHIMURIUM, Strain/Indicator: TA1537, Metabolic Activation: HAMSTER, LIVER, S-9, AROCLOR 1254 (30%), Method: PREINCUBATION): inactive; negative
mutagenic call (Test System: AMES SALMONELLA TYPHIMURIUM, Strain/Indicator: TA1537, Metabolic Activation: NONE, Method: PREINCUBATION): inactive; negative
mutagenic call (Test System: AMES SALMONELLA TYPHIMURIUM, Strain/Indicator: TA1537, Metabolic Activation: RAT, LIVER, S-9, AROCLOR 1254 (30%), Method: PREINCUBATION): inactive; negative

CCn1nc(C(=O)O)c(=O)c2cc3c(cc21)OCO3
mutagenic call (Test System: AMES SALMONELLA TYPHIMURIUM, Strain/Indicator: TA102, Metabolic Activation: NONE, Method: STANDARD PLATE): active; positive

CC(=O)N[C@@H](CS/C(Cl)=C(\Cl)C(Cl)=C(Cl)Cl)C(=O)O
mutagenic call [1]: inactive; negative
mutagenic call (Test System: AMES SALMONELLA TYPHIMURIUM, Strain/Indicator: TA100, Metabolic Activation: RAT, KIDNEY, CYTOSOL, Method: PREINCUBATION): active; positive
mutagenic call (Test System: AMES SALMONELLA TYPHIMURIUM, Strain/Indicator: TA100, Metabolic Activation: RAT, LIVER, S-9, AROCLOR 1254 (10%), Method: PREINCUBATION): active; positive

CCC(=O)CN(C)N=O
mutagenic call (Test System: CHINESE HAMSTER V-79, Strain/Indicator: V-79/OUABAIN, Metabolic Activation: HAMSTER, HEPATOCYTES, Method: CELL-MEDIATED): active; positive

COc1c2cc3c(cc2nc2occc12)OCO3
mutagenic call (Test System: AMES SALMONELLA TYPHIMURIUM, Strain/Indicator: TA98, Metabolic Activation: RAT, LIVER, S-9, PHENOBARBITAL, Method: STANDARD PLATE): active; positive
mutagenic call (Test System: AMES SALMONELLA TYPHIMURIUM, Strain/Indicator: TA100, Metabolic Activation: RAT, LIVER, S-9, PHENOBARBITAL, Method: STANDARD PLATE): active; positive
